The source of these data is US20190062305A1, “PYRIDYL OR PYRAZINYL COMPOUNDS CARRYING A METHYL-BOUND ALPHA-AMINO ACID AMIDE GROUP” (ABBVIE DEUTSCHLAND GMBH & CO. KG, priority 2015, published 2019).

Structures can show the parent of a compound that is named as a salt. Where two headings read alike, the source gives them in different places.

Series [1] can be described thus: Metabolic stability in human liver microsomes, unbound intrinsic clearance (Cl int/fu mic). Type of series: in vitro ADME. Conditions: pH 7.4, human liver microsomes 0.25 mg/mL, 0.5 μM compound, NADPH, read-out: Cl int, mic unb. (h) [l/h/kg] (unbound intrinsic clearance, human). Put shortly: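 Unbound intrinsic clearance is CLint divided by fu mic, with the unbound fraction measured by 4 h HTDialysis at 37 °C of 0.25 mg/ml microsomes spiked with 0.5 µM compound. For CLint, 0.5 µM compound was incubated with 0.25 mg/mL human microsomes and 1.0 mM NADPH (pH 7.4, 37 °C). Substrate loss over 30 min was measured by LC-MS/MS and t1/2 assumed first-order kinetics.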

In series [2] the target is T1, 5-HT2C receptor (Homo sapiens, UniProt P28335).
T1 construct: host or cells: U2OS
T1 sequence (P28335 33-458): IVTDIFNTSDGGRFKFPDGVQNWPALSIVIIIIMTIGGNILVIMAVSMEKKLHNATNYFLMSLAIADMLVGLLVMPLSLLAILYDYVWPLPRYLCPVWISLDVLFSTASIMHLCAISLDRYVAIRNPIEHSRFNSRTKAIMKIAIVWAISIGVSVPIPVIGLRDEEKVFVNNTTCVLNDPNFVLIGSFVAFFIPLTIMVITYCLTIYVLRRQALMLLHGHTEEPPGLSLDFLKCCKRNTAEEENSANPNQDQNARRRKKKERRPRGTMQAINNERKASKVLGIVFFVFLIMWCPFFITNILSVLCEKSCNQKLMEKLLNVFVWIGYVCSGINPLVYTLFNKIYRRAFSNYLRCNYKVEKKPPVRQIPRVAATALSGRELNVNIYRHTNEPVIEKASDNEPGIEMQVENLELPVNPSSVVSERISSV
T1 sequence (P32121 whole entry partner): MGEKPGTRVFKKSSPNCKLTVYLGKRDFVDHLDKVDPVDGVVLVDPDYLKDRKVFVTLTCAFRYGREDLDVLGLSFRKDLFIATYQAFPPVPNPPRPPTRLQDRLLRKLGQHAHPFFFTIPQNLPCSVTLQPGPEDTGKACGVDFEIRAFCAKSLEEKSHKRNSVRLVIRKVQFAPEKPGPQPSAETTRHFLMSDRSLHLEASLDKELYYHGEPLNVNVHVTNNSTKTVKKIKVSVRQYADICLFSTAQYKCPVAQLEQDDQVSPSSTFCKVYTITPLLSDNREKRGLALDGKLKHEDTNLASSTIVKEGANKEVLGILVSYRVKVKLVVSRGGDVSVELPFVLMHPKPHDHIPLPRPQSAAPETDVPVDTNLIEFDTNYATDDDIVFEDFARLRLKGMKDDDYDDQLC
Kind of series: Human 5-HT2C functional assay (beta-arrestin2 recruitment, U2OS_HTR2C_β-Arrestin cells). Type of series: cell-based. As to conditions: for EC50: beta-arrestin2 recruitment, U2OS_HTR2C_β-Arrestin cells, 1.5 h incubation, read-out: EC50 5-HT2C (potency in functional assay); for Emax: relative efficacy vs response to 10 μM 5-HT or maximal 5-HT effect (100%). The gist of the method: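 EC50 and relative efficacy came from 4-parameter variable-slope fits, normalised to 10 µM 5-HT or maximal 5-HT response (100%). Luminescent β-galactosidase enzyme-complementation signal was read after 1.5 h compound exposure in U2OS_HTR2C_β-Arrestin cells held in 1% serum medium from the prior day.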

Regarding `COc1nc(NCc2ccc(F)cc2)c(F)cc1CNC(=O)[C@@H]1CCCN1` [Example 177, (2S)—N-[[5-Fluoro-6-[(4-fluorophenyl)methylamino]-2-methoxy-3-pyridyl]methyl]-pyrrolidine-2-carboxamide; 2,2,2-trifluoroacetic Acid], the CLint scaled at 0.5 μM in series [1] (human, liver microsomes) was below 5 L/h/kg. In addition, in series [2], the EC50 fell in the range of 20 to 200 nM and the maximal effect (Emax) is above 70%.

Turning to `COc1nc(Nc2ccc(F)cc2)c(F)cc1CNC(=O)[C@@H]1CCCN1` [Example 178, (2S)—N-[[5-Fluoro-6-(4-fluoroanilino)-2-methoxy-3-pyridyl]methyl]pyrrolidine-2-carboxamide; 2,2,2-trifluoroacetic Acid], the CLint scaled at 0.5 μM in series [1] (human, liver microsomes) was below 5 L/h/kg. In series [2], the EC50 was in the range of 200 to 1000 nM.

With `COc1nc(N(C)Cc2ccccc2)c(F)cc1CNC(=O)[C@@H]1CCCN1` [Example 179, (2S)—N-[[6-[N-Benzyl-N-methyl-amino]-5-fluoro-2-methoxy-3-pyridyl]methyl]-pyrrolidine-2-carboxamide; 2,2,2-trifluoroacetic Acid], the CLint scaled at 0.5 μM in series [1] (human, liver microsomes) is 5 to 50 L/h/kg. Besides, in series [2], the concentration giving a half-maximal response (EC50) fell in the range of 200 to 1000 nM and the Emax is 50 to 70%.

On to `COc1nc(N2CCC(C3CCC(C(F)(F)F)CC3)CC2)c(F)cc1CNC(=O)[C@@H]1CCCN1` (stereo partly drawn) [Example 180, (2S)—N-[[5-Fluoro-2-methoxy-6-[4-[4-(trifluoromethyl)cyclohexyl]-1-piperidyl]-3-pyridyl]methyl]pyrrolidine-2-carboxamide; 2,2,2-trifluoroacetic Acid], for which, in series [1] (human, liver microsomes), the CLint scaled at 0.5 μM is 50 to 500 L/h/kg. In addition, in series [2], the EC50 was in the range of 200 to 1000 nM and the Emax was above 70%.

With `COc1nc(N2CC(F)(F)C(F)(F)C(F)(F)C2)c(F)cc1CNC(=O)[C@@H]1CCCN1` [Example 182, (2S)—N-[[5-Fluoro-6-(3,3,4,4,5,5-hexafluoro-1-piperidyl)-2-methoxy-3-pyridyl]-methyl]pyrrolidine-2-carboxamide Hydrochloride], the CLint scaled at 0.5 μM in series [1] lay within 5 to 50 L/h/kg. Moreover, in series [2], the EC50 is below 20 nM and the Emax was above 70%.

With `COc1nc(N2CC3C(C2)C3(F)F)c(F)cc1CNC(=O)[C@@H]1CCCN1` (stereo partly drawn) [Example 183, (2S)—N-[[6-(6,6-Difluoro-3-azabicyclo[3.1.0]hexan-3-yl)-5-fluoro-2-methoxy-3-pyridyl]methyl]pyrrolidine-2-carboxamide], in series [1] (human, liver microsomes), the CLint scaled at 0.5 μM was in the range of 5 to 50 L/h/kg. For the same compound, in series [2], the EC50 was 20 to 200 nM and the Emax was above 70%.

On to `COc1nc(N2CCC3C(C2)C3(F)F)c(F)cc1CNC(=O)[C@@H]1CCCN1` (stereo partly drawn) [Example 184, (2S)—N-[[6-(7,7-Difluoro-4-azabicyclo[4.1.0]heptan-4-yl)-5-fluoro-2-methoxy-3-pyridyl]methyl]pyrrolidine-2-carboxamide; 2,2,2-trifluoroacetic Acid], for which, in series [1] (human, liver microsomes), the CLint scaled at 0.5 μM was in the range of 5 to 50 L/h/kg. Moreover, in series [2], the 50% effective concentration (EC50) is 20 to 200 nM and the Emax was above 70%.

In the case of `COc1nc(NCCCc2ccccc2)c(F)cc1CNC(=O)[C@@H]1CCCN1` [Example 185, (2S)—N-[[5-Fluoro-2-methoxy-6-(3-phenylpropylamino)-3-pyridyl]methyl]-pyrrolidine-2-carboxamide; 2,2,2-trifluoroacetic acid], the CLint scaled at 0.5 μM in series [1] (human, liver microsomes) was 5 to 50 L/h/kg. Also, in series [2], the EC50 is 20 to 200 nM and the Emax is above 70%.

For `COc1nc(NC2CCC2C(F)(F)F)c(F)cc1CNC(=O)[C@@H]1CCCN1` (stereo partly drawn) [Example 186, (2S)—N-[[5-Fluoro-2-methoxy-6-[[2-(trifluoromethyl)cyclobutyl]amino]-3-pyridyl]-methyl]pyrrolidine-2-carboxamide], the CLint scaled at 0.5 μM in series [1] (human, liver microsomes) was below 5 L/h/kg. Moreover, in series [2], the EC50 lay in the range of 20 to 200 nM and the Emax is above 70%.

Regarding `COc1nc(N2CCC(CC(F)(F)F)C2)c(F)cc1CNC(=O)[C@@H]1CCCN1` (stereo partly drawn) [Example 187, (2S)—N-[[5-Fluoro-2-methoxy-6-[3-(2,2,2-trifluoroethyl)pyrrolidin-1-yl]-3-pyridyl]methyl]pyrrolidine-2-carboxamide; 2,2,2-trifluoroacetic Acid], the CLint scaled at 0.5 μM in series [1] (human, liver microsomes) is 5 to 50 L/h/kg. In series [2], the EC50 fell in the range of 20 to 200 nM and the Emax is above 70%.

In the case of `COc1nc(N2CCCC3(C2)CC3(F)F)c(F)cc1CNC(=O)[C@@H]1CCCN1` (stereo partly drawn) [Example 188, (2S)—N-[[6-(2,2-Difluoro-7-azaspiro[2.5]octan-7-yl)-5-fluoro-2-methoxy-3-pyridyl]methyl]pyrrolidine-2-carboxamide; 2,2,2-trifluoroacetic Acid], the CLint scaled at 0.5 μM in series [1] lay within 5 to 50 L/h/kg. Moreover, in series [2], the EC50 fell in the range of 20 to 200 nM and the Emax is above 70%.

As for `COc1nc(CC2CCOCC2)c(F)cc1CNC(=O)[C@@H]1CCCN1` [Example 189, (2S)—N-[[5-Fluoro-2-methoxy-6-(tetrahydropyran-4-ylmethyl)-3-pyridyl]methyl]-pyrrolidine-2-carboxamide; 2,2,2-trifluoroacetic Acid], the CLint scaled at 0.5 μM in series [1] (human, liver microsomes) is below 5 L/h/kg. For the same compound, in series [2], the EC50 was 200 to 1000 nM and the Emax was in the range of 50 to 70%.

Regarding `COc1nc(N2CCC(F)(F)C(C(F)F)C2)c(F)cc1CNC(=O)[C@@H]1CCCN1` (stereo partly drawn) [Example 190, (2S)—N-[[6-[3-(Difluoromethyl)-4,4-difluoro-1-piperidyl]-5-fluoro-2-methoxy-3-pyridyl]methyl]pyrrolidine-2-carboxamide Hydrochloride], the CLint scaled at 0.5 μM in series [1] (human, liver microsomes) is below 5 L/h/kg. In series [2], the EC50 is below 20 nM and the Emax is above 70%.

`COc1nc(C(F)(F)Cc2ccccc2)c(F)cc1CN(C)C(=O)[C@@H]1CCCN1` [Example 191, (2S)—N-[[6-(1,1-Difluoro-2-phenyl-ethyl)-5-fluoro-2-methoxy-3-pyridyl]methyl]-N-methyl-pyrrolidine-2-carboxamide Hydrochloride]: in series [1] (human, liver microsomes), the CLint scaled at 0.5 μM lay within 5 to 50 L/h/kg. Also, in series [2], the EC50 lay in the range of 200 to 1000 nM and the Emax was 30 to 50%.

For the compound `COCCCCc1nc(OC)c(CNC(=O)[C@@H]2CCCN2)cc1F` [Example 193, (2S)—N-[[5-Fluoro-2-methoxy-6-(4-methoxybutyl)-3-pyridyl]methyl]pyrrolidine-2-carboxamide], the CLint scaled at 0.5 μM in series [1] (human, liver microsomes) is below 5 L/h/kg. Besides, in series [2], the EC50 was 200 to 1000 nM and the Emax is above 70%.

As for `COc1nc(N2CC(Cc3ccccc3)C2)c(F)cc1CNC(=O)[C@@H]1CCCN1` [Example 194, (2S)—N-[[6-(3-Benzylazetidin-1-yl)-5-fluoro-2-methoxy-3-pyridyl]methyl]-pyrrolidine-2-carboxamide], the CLint scaled at 0.5 μM in series [1] (human, liver microsomes) was 50 to 500 L/h/kg. Moreover, in series [2], the EC50 lay within 20 to 200 nM and the Emax is above 70%.

Take `COc1nc(N2CCC(Oc3ccccc3)CC2)c(F)cc1CNC(=O)[C@@H]1CCCN1` [Example 195, (2S)—N-[[5-Fluoro-2-methoxy-6-(4-phenoxy-1-piperidyl)-3-pyridyl]methyl]-pyrrolidine-2-carboxamide; 2,2,2-trifluoroacetic Acid]: the CLint scaled at 0.5 μM in series [1] (human, liver microsomes) was in the range of 50 to 500 L/h/kg. For the same compound, in series [2], the EC50 lay in the range of 20 to 200 nM and the Emax was above 70%.
